System: TNF-alpha induced hypothermia
Experiment: acute hypothermia mouse model (TNF-alpha/zVAD-FMK induced hypothermia)
Type: in vivo, mice
Details: dose of 5 mg/kg, oral gavage
Description: In this example, an acute hypothermia mouse model assay was used to evaluate the ability of compounds disclosed herein to inhibit TNF-alpha induced hypothermia.
Female C57BL/6 mice are randomly grouped and weighed on Day −1. On the day of the study (Day 0), mice are administered vehicle or test article by oral gavage. Fifteen minutes after oral administration of test agents, each mouse is administered an intraperitoneal (IP) injection of solution containing recombinant human tumor necrosis factor alpha (TNF-a, 25.0 μg) and zVAD-FMK (200 μg). Body temperature is measured at 0 hours (before IP injections) and every hour via rectal probe temperature measuring device. Three (3) hours after IP injections of TNF-α and zVAD/FMK, mice are euthanized by CO2 asphyxiation and blood is collected via cardiac puncture. Serum and plasma are harvested for determination of cytokine and compound levels, respectively. Separate groups of mice (satellite mice) are included for the determination of compound levels in plasma at the time of administration of TNFa/zVAD-FMK.
(S)-5-benzyl-N-(5-methyl-4-oxo-2,3,4,5-tetrahydrobenzo[b][1,4]oxazepin-3-yl)-4H-1,2,4-triazole-3-carboxamide (WO 2014/125444), having a structure as illustrated below, was used as a comparative compound and was examined using a similar protocol as described by WO 2014/125444.

CN1C(=O)[C@@H](NC(=O)c2n[nH]c(Cc3ccccc3)n2)COc2ccc(C#CC(C)(C)O)cc21 [Compound I-30, (S)-5-benzyl-N-(7-(3-hydroxy-3-methylbut-1-yn-1-yl)-5-methyl-4-oxo-2,3,4,5-tetrahydrobenzo[b][1,4]oxazepin-3-yl)-1H-1,2,4-triazole-3-carboxamide]
inhibition of TNF-alpha induced hypothermia: greater than 85%
